Assay results from PubChem BioAssay (NCI).
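In this assay, cells in 96-well plates receive the compound at five concentrations for 48 hours. Endpoints are linearly interpolated between the surrounding concentrations. At the GI50, growth is halved. TGI marks complete inhibition of growth.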

Columns and labels:
Test in all cases: NCI anticancer screen, dose series, 48 h
786-0 renal = test system: 786-0 renal
A498 renal = test system: A498 renal
A549 NSCLC = test system: A549 NSCLC
ACHN renal = test system: ACHN renal
BT-549 breast = test system: BT-549 breast
CAKI-1 renal = test system: CAKI-1 renal
COLO 205 colon = test system: COLO 205 colon
DU-145 prostate = test system: DU-145 prostate
HCC-2998 colon = test system: HCC-2998 colon
HCT-116 colon = test system: HCT-116 colon
HCT-15 colon = test system: HCT-15 colon
HL-60(TB) leukemia = test system: HL-60(TB) leukemia
HOP-62 NSCLC = test system: HOP-62 NSCLC
HOP-92 NSCLC = test system: HOP-92 NSCLC
HS 578T breast = test system: HS 578T breast
HT29 colon = test system: HT29 colon
IGROV1 ovarian = test system: IGROV1 ovarian
K-562 leukemia = test system: K-562 leukemia
KM12 colon = test system: KM12 colon
LOX IMVI melanoma = test system: LOX IMVI melanoma
M14 melanoma = test system: M14 melanoma
MALME-3M melanoma = test system: MALME-3M melanoma
MCF7 breast = test system: MCF7 breast
MDA-MB-231 breast = test system: MDA-MB-231 breast
MDA-MB-435 = test system: MDA-MB-435
MOLT-4 leukemia = test system: MOLT-4 leukemia
NCI-H226 lung = test system: NCI-H226 lung
NCI-H23 lung = test system: NCI-H23 lung
NCI-H460 lung = test system: NCI-H460 lung
NCI-H522 lung = test system: NCI-H522 lung
NCI/ADR-RES ovarian = test system: NCI/ADR-RES ovarian
OVCAR-3 ovarian = test system: OVCAR-3 ovarian
OVCAR-4 ovarian = test system: OVCAR-4 ovarian
OVCAR-5 ovarian = test system: OVCAR-5 ovarian
OVCAR-8 ovarian = test system: OVCAR-8 ovarian
PC-3 prostate = test system: PC-3 prostate
RPMI-8226 leukemia = test system: RPMI-8226 leukemia
RXF 393 renal = test system: RXF 393 renal
SF-268 CNS = test system: SF-268 CNS
SF-295 CNS = test system: SF-295 CNS
SF-539 CNS = test system: SF-539 CNS
SK-MEL-2 melanoma = test system: SK-MEL-2 melanoma
SK-MEL-28 melanoma = test system: SK-MEL-28 melanoma
SK-MEL-5 melanoma = test system: SK-MEL-5 melanoma
SK-OV-3 ovarian = test system: SK-OV-3 ovarian
SN12C renal = test system: SN12C renal
SNB-19 CNS = test system: SNB-19 CNS
SNB-75 CNS = test system: SNB-75 CNS
SR leukemia = test system: SR leukemia
SW-620 colon = test system: SW-620 colon
T-47D breast = test system: T-47D breast
TK-10 renal = test system: TK-10 renal
U251 CNS = test system: U251 CNS
UACC-257 melanoma = test system: UACC-257 melanoma
UACC-62 melanoma = test system: UACC-62 melanoma
UO-31 renal = test system: UO-31 renal

SMILES: CC12CCC(O)CC1CCC1C2CCC2(C)C(C3=CC(=O)OC3)CCC12 (stereo not given)
- GI50 (786-0 renal): 22 µM
- TGI (786-0 renal): 65.2 µM
- GI50 (A498 renal): 1.5 µM
- TGI (A498 renal): 10.4 µM
- GI50 (A549 NSCLC): 21.8 µM
- TGI (A549 NSCLC): > 100 µM
- GI50 (ACHN renal): 26.4 µM
- TGI (ACHN renal): > 91.3 µM
- GI50 (BT-549 breast): 11.2 µM
- TGI (BT-549 breast): > 95.3 µM
- GI50 (CAKI-1 renal): > 55.7 µM
- TGI (CAKI-1 renal): > 100 µM
- GI50 (COLO 205 colon): > 100 µM
- TGI (COLO 205 colon): > 100 µM
- GI50 (DU-145 prostate): 42.4 µM
- TGI (DU-145 prostate): > 100 µM
- GI50 (HCC-2998 colon): > 100 µM
- TGI (HCC-2998 colon): > 100 µM
- GI50 (HCT-116 colon): 25.5 µM
- TGI (HCT-116 colon): > 100 µM
- GI50 (HCT-15 colon): > 100 µM
- TGI (HCT-15 colon): > 100 µM
- GI50 (HL-60(TB) leukemia): > 100 µM
- TGI (HL-60(TB) leukemia): > 100 µM
- GI50 (HOP-62 NSCLC): 9.53 µM
- TGI (HOP-62 NSCLC): 44.9 µM
- GI50 (HOP-92 NSCLC): 5.02 µM
- TGI (HOP-92 NSCLC): 29.5 µM
- GI50 (HS 578T breast): 3.48 µM
- TGI (HS 578T breast): > 48.5 µM
- GI50 (HT29 colon): > 100 µM
- TGI (HT29 colon): > 100 µM
- GI50 (IGROV1 ovarian): 20.5 µM
- TGI (IGROV1 ovarian): > 71 µM
- GI50 (K-562 leukemia): > 100 µM
- TGI (K-562 leukemia): > 100 µM
- GI50 (KM12 colon): > 100 µM
- TGI (KM12 colon): > 100 µM
- GI50 (LOX IMVI melanoma): 0.3 µM
- TGI (LOX IMVI melanoma): > 100 µM
- GI50 (M14 melanoma): > 100 µM
- TGI (M14 melanoma): > 100 µM
- GI50 (MALME-3M melanoma): 26.3 µM
- TGI (MALME-3M melanoma): > 90.1 µM
- GI50 (MCF7 breast): > 100 µM
- TGI (MCF7 breast): > 100 µM
- GI50 (MDA-MB-231 breast): 0.636 µM
- TGI (MDA-MB-231 breast): 8.49 µM
- GI50 (MDA-MB-435): > 100 µM
- TGI (MDA-MB-435): > 100 µM
- GI50 (MOLT-4 leukemia): > 100 µM
- TGI (MOLT-4 leukemia): > 100 µM
- GI50 (NCI-H226 lung): > 33.6 µM
- TGI (NCI-H226 lung): > 100 µM
- GI50 (NCI-H23 lung): 5.81 µM
- TGI (NCI-H23 lung): > 64.6 µM
- GI50 (NCI-H460 lung): 0.493 µM
- TGI (NCI-H460 lung): > 100 µM
- GI50 (NCI-H522 lung): 0.686 µM
- TGI (NCI-H522 lung): 4.44 µM
- GI50 (NCI/ADR-RES ovarian): 27 µM
- TGI (NCI/ADR-RES ovarian): > 100 µM
- GI50 (OVCAR-3 ovarian): > 86.6 µM
- TGI (OVCAR-3 ovarian): > 100 µM
- TGI (OVCAR-4 ovarian): > 73.2 µM
- GI50 (OVCAR-5 ovarian): > 100 µM
- TGI (OVCAR-5 ovarian): > 100 µM
- GI50 (OVCAR-8 ovarian): 16.9 µM
- TGI (OVCAR-8 ovarian): > 100 µM
- GI50 (PC-3 prostate): > 67.4 µM
- TGI (PC-3 prostate): > 100 µM
- GI50 (RPMI-8226 leukemia): 1.27 µM
- TGI (RPMI-8226 leukemia): > 100 µM
- GI50 (RXF 393 renal): 7.76 µM
- TGI (RXF 393 renal): 42.5 µM
- GI50 (SF-268 CNS): 5.17 µM
- TGI (SF-268 CNS): > 41.8 µM
- GI50 (SF-295 CNS): 10.7 µM
- TGI (SF-295 CNS): 27.4 µM
- GI50 (SF-539 CNS): 21.9 µM
- TGI (SF-539 CNS): > 100 µM
- GI50 (SK-MEL-2 melanoma): 7.49 µM
- TGI (SK-MEL-2 melanoma): 29.8 µM
- GI50 (SK-MEL-28 melanoma): 28.2 µM
- TGI (SK-MEL-28 melanoma): > 100 µM
- GI50 (SK-MEL-5 melanoma): > 100 µM
- TGI (SK-MEL-5 melanoma): > 100 µM
- GI50 (SK-OV-3 ovarian): 21.8 µM
- TGI (SK-OV-3 ovarian): > 61.5 µM
- GI50 (SN12C renal): 53.8 µM
- TGI (SN12C renal): > 100 µM
- GI50 (SNB-19 CNS): 14.2 µM
- TGI (SNB-19 CNS): > 100 µM
- GI50 (SNB-75 CNS): 6.9 µM
- TGI (SNB-75 CNS): 21.2 µM
- GI50 (SR leukemia): 0.375 µM
- TGI (SR leukemia): > 100 µM
- GI50 (SW-620 colon): > 100 µM
- TGI (SW-620 colon): > 100 µM
- GI50 (T-47D breast): 22.3 µM
- TGI (T-47D breast): > 100 µM
- GI50 (TK-10 renal): 19.6 µM
- TGI (TK-10 renal): 66.4 µM
- GI50 (U251 CNS): 2.62 µM
- TGI (U251 CNS): 10.1 µM
- GI50 (UACC-257 melanoma): > 100 µM
- TGI (UACC-257 melanoma): > 100 µM
- GI50 (UACC-62 melanoma): 0.522 µM
- GI50 (UO-31 renal): > 100 µM
- TGI (UO-31 renal): > 100 µM
